In publication PMC12539213, “Molecular targeting of the deubiquitinase USP14 to circumvent cisplatin resistance in ovarian carcinoma and identification of novel inhibitors” (Cancer Drug Resistance, 2025) one finds IC50 data, which are given here for 2 molecules.

The target of assay [1] is T1, USP14 (ubiquitin-specific protease 14) (Homo sapiens, UniProt P54578).
T1 construct: USP14 (6His-tagged), 64-0018-050, Ubiquigent; with Ub-VS-treated human 26S proteasome
The assay is described as follows: Ub-Rho110-G hydrolysis assay, recombinant USP14 with Ub-VS-treated […] proteasome, dose-response. The assay is classed as biochemical.

Assay [2] concerns the target T1, USP14 (ubiquitin-specific protease 14). Kind of assay: Ub-Rho110-G hydrolysis assay, positive control at […] ([…] inhibition) and […] ([…]); also HA-Ub-VS labeling in IGROV-1/Pt1 cells. The class given is biochemical.

T1 sequence (P54578 whole entry): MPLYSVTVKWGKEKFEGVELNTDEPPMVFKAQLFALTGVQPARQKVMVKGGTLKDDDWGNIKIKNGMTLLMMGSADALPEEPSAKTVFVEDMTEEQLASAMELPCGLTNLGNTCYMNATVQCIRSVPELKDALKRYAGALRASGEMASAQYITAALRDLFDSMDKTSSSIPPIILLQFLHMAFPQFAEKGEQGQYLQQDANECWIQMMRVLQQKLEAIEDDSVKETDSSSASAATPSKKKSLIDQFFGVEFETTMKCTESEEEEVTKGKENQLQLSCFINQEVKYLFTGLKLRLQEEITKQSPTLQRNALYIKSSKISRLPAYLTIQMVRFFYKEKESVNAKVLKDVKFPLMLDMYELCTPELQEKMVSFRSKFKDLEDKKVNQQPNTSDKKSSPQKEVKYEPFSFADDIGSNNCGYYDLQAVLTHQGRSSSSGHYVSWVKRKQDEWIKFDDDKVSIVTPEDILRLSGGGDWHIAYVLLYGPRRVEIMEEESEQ

As to `CC1=NN(c2cccc(NC(=O)c3ccccc3Cn3ccnc3)c2)C(=O)C1` [ARN12502], the IC50 in assay [1] was found to be 18.4 ± 2.2 µM.
For the molecule `Cc1cc(C(=O)CN2CCCCC2)c(C)n1-c1ccc(Cl)cc1` [IU1-47], the IC50 in assay [2] is ~ 200 nM.
